Consider 5 molecules from patent publication US12139520B2 (priority 2020, dated 2024).

One data set deals with T1, hAMY3 receptor (Homo sapiens, UniProt O60896+P30988).
T1 sequence (P30988 25-474): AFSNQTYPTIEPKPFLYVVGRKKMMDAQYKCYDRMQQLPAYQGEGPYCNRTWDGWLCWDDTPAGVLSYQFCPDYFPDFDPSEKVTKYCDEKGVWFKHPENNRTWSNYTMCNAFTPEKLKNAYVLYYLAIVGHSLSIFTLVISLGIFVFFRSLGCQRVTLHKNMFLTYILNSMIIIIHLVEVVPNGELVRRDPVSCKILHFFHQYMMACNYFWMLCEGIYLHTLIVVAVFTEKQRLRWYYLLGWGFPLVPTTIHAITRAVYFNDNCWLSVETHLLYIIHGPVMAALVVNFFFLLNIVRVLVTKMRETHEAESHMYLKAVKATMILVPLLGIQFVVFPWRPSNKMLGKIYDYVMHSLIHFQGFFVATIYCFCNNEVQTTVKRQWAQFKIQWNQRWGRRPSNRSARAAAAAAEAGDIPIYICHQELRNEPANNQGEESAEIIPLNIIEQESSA
T1 sequence (O60896 24-148 partner): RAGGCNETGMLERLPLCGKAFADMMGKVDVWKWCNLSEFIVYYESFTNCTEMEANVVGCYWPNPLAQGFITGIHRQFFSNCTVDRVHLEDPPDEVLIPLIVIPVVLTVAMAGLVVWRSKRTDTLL
Briefly: cAMP assay for in vitro receptor activation, hAMY3-R. The format is cell-based. To be noted: cAMP assay, hAMY3 receptor; read-out: hAMY3R EC50. Summed up:
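Receptor activation was measured as cAMP accumulation in a monoclonal cell line stably overexpressing hAMY3. Stimulation with graded doses lasted 30 min at room temperature in the presence of 0.5 mM IBMX, with human amylin as positive control.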

Data set [1] is described as follows: Physical stability of peptide analogues (Thioflavin T fibrillation). To be noted: maximum ThT signal normalized between hAMY maximum and buffer background; 40° C., shaking, four days; pH 7 per table title. The format is physicochemical. Summed up:
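Peptides in 50 mM sodium acetate pH 4 or 50 mM sodium phosphate pH 7 were preincubated 1 h, mixed with 4 μM ThT, held at 40° C with 700 rpm shaking before each read. Fluorescence (ex 450/em 480 nm) every 10 min for four days; LOESS-smoothed maximum signal normalized in percent between hAMY and buffer.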

Bridge positions count the residues as written; N and C are the ends. Square brackets hold non-standard residues; d marks the D form. Peptide text beside a SMILES is read from it. Hyp = O=C(O)[C@@H]1C[C@@H](O)CN1

As for `CC[C@H](C)[C@H](NC(=O)[C@H](CCC(N)=O)NC(=O)[C@H](Cc1c[nH]cn1)NC(=O)[C@H](C)NC(=O)[C@H](CC(C)C)NC(=O)[C@H](CCCNC(=N)N)NC(=O)[C@H](CCC(N)=O)NC(=O)[C@@H](NC(=O)[C@@H](NC(=O)[C@@H]1CSSC[C@H](NC(=O)CN)C(=O)N[C@@H](CCCNC(=N)N)C(=O)N[C@@H](Cc2ccccc2)C(=O)NCC(=O)N[C@@H]([C@@H](C)O)C(=O)N1)[C@@H](C)O)C(C)C)C(=O)N[C@@H](Cc1ccc(O)cc1)C(=O)N[C@@H](CCC(N)=O)C(=O)N[C@@H](Cc1ccccc1)C(=O)N[C@H](C(=O)N[C@@H](CC(=O)O)C(=O)N[C@@H](CCCCN)C(=O)N[C@@H](CC(=O)O)C(=O)N[C@@H](CCCCN)C(=O)N[C@@H](CC(=O)O)C(=O)N[C@@H](CC(N)=O)C(=O)N[C@H](C(=O)N[C@@H](C)C(=O)N1CCC[C@H]1C(=O)N[C@@H](CCCNC(=N)N)C(=O)N[C@H](C(=O)N[C@@H](CC(N)=O)C(=O)N[C@H](C(=O)NCC(=O)N1CCC[C@H]1C(=O)N[C@@H](CC(N)=O)C(=O)NCC(=O)N1C[C@H](O)C[C@H]1C(N)=O)C(C)C)[C@@H](C)O)C(C)C)[C@@H](C)O` [compound 90] (H-GCRFGTCTVQRLAHQIYQFTDKDKDNVAPRTNVGPNG[Hyp]-NH2; disulfide 2-7; N-terminus assumed), the EC50 (commonly the concentration giving half of the maximal effect) on hAMY3 receptor worked out at 0.016 nM. The “Max ThT signal (%)” value in data set [1] is given as 2.000%.

Consider `CC[C@H](C)[C@H](NC(=O)[C@H](CCC(N)=O)NC(=O)[C@H](Cc1c[nH]cn1)NC(=O)[C@H](C)NC(=O)[C@H](CC(C)C)NC(=O)[C@H](CCCNC(=N)N)NC(=O)[C@H](CCC(N)=O)NC(=O)[C@@H](NC(=O)[C@@H](NC(=O)[C@@H]1CSSC[C@H](NC(=O)CN)C(=O)N[C@@H](CCCNC(=N)N)C(=O)N[C@@H](Cc2ccccc2)C(=O)NCC(=O)N[C@@H]([C@@H](C)O)C(=O)N1)[C@@H](C)O)C(C)C)C(=O)N[C@@H](Cc1ccc(O)cc1)C(=O)N[C@@H](CCC(N)=O)C(=O)N[C@@H](Cc1ccccc1)C(=O)N[C@H](C(=O)N[C@@H](CC(=O)O)C(=O)N[C@@H](CCCCN)C(=O)N[C@@H](CC(=O)O)C(=O)N[C@@H](CCCCN)C(=O)N[C@@H](CC(=O)O)C(=O)N[C@@H](CC(N)=O)C(=O)N[C@H](C(=O)N[C@@H](C)C(=O)N1CCC[C@H]1C(=O)N[C@@H](CCCNC(=N)N)C(=O)N[C@H](C(=O)N[C@@H](CC(N)=O)C(=O)N[C@H](C(=O)N[C@@H](CO)C(=O)N1CCC[C@H]1C(=O)N[C@@H](CC(N)=O)C(=O)NCC(=O)N[C@@H](Cc1ccc(O)cc1)C(N)=O)C(C)C)[C@@H](C)O)C(C)C)[C@@H](C)O` [compound 98] (H-GCRFGTCTVQRLAHQIYQFTDKDKDNVAPRTNVSPNGY-NH2; disulfide 2-7; N-terminus assumed), for which, at hAMY3 receptor, the EC50 came to 0.017 nM. For the same molecule, the “Max ThT signal (%)” value in data set [1] is 12.600%.

Turning to `CC[C@H](C)[C@H](NC(=O)[C@H](CCC(N)=O)NC(=O)[C@H](Cc1c[nH]cn1)NC(=O)[C@H](C)NC(=O)[C@H](CC(C)C)NC(=O)[C@H](CCCNC(=N)N)NC(=O)[C@H](CCC(N)=O)NC(=O)[C@@H](NC(=O)[C@@H](NC(=O)[C@@H]1CSSC[C@H](NC(=O)CN)C(=O)N[C@@H](CCCNC(=N)N)C(=O)N[C@@H]([C@@H](C)O)C(=O)NCC(=O)N[C@@H]([C@@H](C)O)C(=O)N1)[C@@H](C)O)C(C)C)C(=O)N[C@@H](Cc1ccc(O)cc1)C(=O)N[C@@H](CCC(N)=O)C(=O)N[C@@H](Cc1ccccc1)C(=O)N[C@H](C(=O)N[C@@H](CC(=O)O)C(=O)N[C@@H](CCCCN)C(=O)N[C@@H](CC(=O)O)C(=O)N[C@@H](CCCCN)C(=O)N[C@@H](CC(=O)O)C(=O)N[C@@H](CC(N)=O)C(=O)N[C@H](C(=O)N[C@@H](C)C(=O)N1CCC[C@H]1C(=O)N[C@@H](CCCNC(=N)N)C(=O)N[C@H](C(=O)N[C@@H](CC(N)=O)C(=O)N[C@H](C(=O)NCC(=O)N1CCC[C@H]1C(=O)N[C@@H](CCC(N)=O)C(=O)NCC(=O)N[C@@H](Cc1ccc(O)cc1)C(N)=O)C(C)C)[C@@H](C)O)C(C)C)[C@@H](C)O` [compound 109] (H-GCRTGTCTVQRLAHQIYQFTDKDKDNVAPRTNVGPQGY-NH2; disulfide 2-7; N-terminus assumed), the EC50 on hAMY3 receptor is 0.02 nM. Moreover, in data set [1], the “Max ThT signal (%)” value is 9.300%.

With `CC[C@H](C)[C@H](NC(=O)[C@H](CCC(N)=O)NC(=O)[C@H](Cc1c[nH]cn1)NC(=O)[C@H](C)NC(=O)[C@H](CC(C)C)NC(=O)[C@H](CCCNC(=N)N)NC(=O)[C@H](CCC(N)=O)NC(=O)[C@@H](NC(=O)[C@@H](NC(=O)[C@@H]1CSSC[C@H](NC(=O)CN)C(=O)N[C@@H](CCCNC(=N)N)C(=O)N[C@@H](Cc2ccccc2)C(=O)NCC(=O)N[C@@H]([C@@H](C)O)C(=O)N1)[C@@H](C)O)C(C)C)C(=O)N[C@@H](Cc1ccc(O)cc1)C(=O)N[C@@H](CCC(N)=O)C(=O)N[C@@H](Cc1ccccc1)C(=O)N[C@H](C(=O)N[C@@H](CC(=O)O)C(=O)N[C@@H](CCCCN)C(=O)N[C@@H](CC(=O)O)C(=O)N[C@@H](CCCCN)C(=O)N[C@@H](CC(=O)O)C(=O)N[C@@H](CC(N)=O)C(=O)N[C@H](C(=O)N[C@@H](C)C(=O)N1CCC[C@H]1C(=O)N[C@@H](CCCNC(=N)N)C(=O)N[C@H](C(=O)N[C@@H](CCCCN)C(=O)N[C@H](C(=O)N[C@@H](CO)C(=O)N1CCC[C@H]1C(=O)N[C@@H](CC(N)=O)C(=O)NCC(=O)N1C[C@H](O)C[C@H]1C(N)=O)[C@@H](C)CC)[C@@H](C)O)C(C)C)[C@@H](C)O` [compound 113] (H-GCRFGTCTVQRLAHQIYQFTDKDKDNVAPRTKISPNG[Hyp]-NH2; disulfide 2-7; N-terminus assumed), on hAMY3 receptor, the EC50 came out at 0.022 nM. Besides, the “Max ThT signal (%)” value in data set [1] is 14.700%.

Consider `CC[C@H](C)[C@H](NC(=O)[C@H](CCC(N)=O)NC(=O)[C@H](Cc1c[nH]cn1)NC(=O)[C@H](C)NC(=O)[C@H](CC(C)C)NC(=O)[C@H](CCCNC(=N)N)NC(=O)[C@H](CCC(N)=O)NC(=O)[C@@H](NC(=O)[C@@H](NC(=O)[C@@H]1CSSC[C@H](NC(=O)CN)C(=O)N[C@@H](CCCNC(=N)N)C(=O)N[C@@H](Cc2ccccc2)C(=O)NCC(=O)N[C@@H]([C@@H](C)O)C(=O)N1)[C@@H](C)O)C(C)C)C(=O)N[C@@H](Cc1ccc(O)cc1)C(=O)N[C@@H](CCC(N)=O)C(=O)N[C@@H](Cc1ccccc1)C(=O)N[C@H](C(=O)N[C@@H](CC(=O)O)C(=O)N[C@@H](CCCCN)C(=O)N[C@@H](CC(=O)O)C(=O)N[C@@H](CCCCN)C(=O)N[C@@H](CC(=O)O)C(=O)N[C@@H](CC(N)=O)C(=O)N[C@H](C(=O)N[C@@H](C)C(=O)N1CCC[C@H]1C(=O)N[C@@H](CCCNC(=N)N)C(=O)N[C@H](C(=O)N[C@@H](CC(N)=O)C(=O)N[C@H](C(=O)N[C@@H](CO)C(=O)N1CCC[C@H]1C(=O)N[C@@H](CCC(N)=O)C(=O)NCC(=O)N[C@@H](Cc1ccc(O)cc1)C(N)=O)C(C)C)[C@@H](C)O)C(C)C)[C@@H](C)O` [compound 116] (H-GCRFGTCTVQRLAHQIYQFTDKDKDNVAPRTNVSPQGY-NH2; disulfide 2-7; N-terminus assumed), for which, on hAMY3 receptor, the EC50 was 0.024 nM. In addition, the “Max ThT signal (%)” value in data set [1] worked out at 11.700%.
